Measurements reported in PubChem BioAssay (NCI).
Values joined by “and” are separate entries in the source; they are usually repeats but may differ in a detail not shown here. Identical values can stand only once.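 1) Cells in 96-well plates. 2) Compound, 48 h, 5 concentrations. 3) Linear interpolation between surrounding doses. 4) Unreached endpoint = highest concentration. GI50 = concentration required for 50% inhibition of growth. Definition used: TGI = concentration required for complete inhibition of growth.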

Assays:
Assay in all cases: inhibition of tumour cell growth, NCI panel, 48 h
ACHN renal = test system: ACHN renal
CAKI-1 renal = test system: CAKI-1 renal
EKVX NSCLC = test system: EKVX NSCLC
HCT-15 colon = test system: HCT-15 colon
HS 578T breast = test system: HS 578T breast
LOX IMVI melanoma = test system: LOX IMVI melanoma
MDA-MB-435 = test system: MDA-MB-435
NCI-H460 lung = test system: NCI-H460 lung
OVCAR-8 ovarian = test system: OVCAR-8 ovarian
SK-MEL-5 melanoma = test system: SK-MEL-5 melanoma

## Cc1cc(S(N)(=O)=O)c(S/C(=N\Nc2ccc([N+](=O)[O-])cc2)c2ccc3ccccc3c2)cc1Cl
ACHN renal
  GI50: 17 µM
  TGI: 30.7 µM
CAKI-1 renal
  GI50: 17.5 µM
  TGI: 48.8 µM
EKVX NSCLC
  GI50: 17.9 µM
  TGI: 64.3 µM
HCT-15 colon
  GI50: 20.1 µM
  TGI: 41 µM
HS 578T breast
  GI50: 2.19 µM
  TGI: 8.86 µM
LOX IMVI melanoma
  GI50: 20.3 µM
  TGI: 40.9 µM
MDA-MB-435
  GI50: 22.2 µM
  TGI: 64.9 µM
NCI-H460 lung
  GI50: 18.5 µM
  TGI: > 100 µM
OVCAR-8 ovarian
  GI50: 14 µM
  TGI: > 100 µM
SK-MEL-5 melanoma
  GI50: 16.5 µM
  TGI: 36.8 µM

## CN(C)c1ccc(C(=C2C=CC(=[N+](C)C)C=C2)c2ccccc2Cl)cc1
ACHN renal
  GI50: 0.4 µM
  TGI: 1.61 µM
CAKI-1 renal
  GI50: 0.455 µM
  TGI: 2.76 µM
EKVX NSCLC
  GI50: 0.162 µM
  TGI: 1.45 µM
HCT-15 colon
  GI50: 0.717 µM
  TGI: 4.96 µM
HS 578T breast
  GI50: 0.207 µM
  TGI: 2.78 µM
LOX IMVI melanoma
  GI50: 0.224 µM
  TGI: 0.836 µM
MDA-MB-435
  GI50: 0.309 µM
  TGI: 1.11 µM
NCI-H460 lung
  GI50: 0.245 µM
  TGI: 0.804 µM
OVCAR-8 ovarian
  GI50: 0.306 µM
  TGI: 1.66 µM
SK-MEL-5 melanoma
  GI50: 0.301 µM
  TGI: 1.05 µM

## CC12CCC(O)CC1=CCC1C2CCC2(C)C(c3cccnc3)=CCC12 (stereo not given)
ACHN renal
  GI50: > 100 µM
  TGI: > 100 µM
CAKI-1 renal
  GI50: > 100 µM
  TGI: > 100 µM
EKVX NSCLC
  GI50: > 100 µM
  TGI: > 100 µM
HCT-15 colon
  GI50: > 100 µM
  TGI: > 100 µM
HS 578T breast
  GI50: > 100 µM
  TGI: > 100 µM
LOX IMVI melanoma
  GI50: > 100 µM
  TGI: > 100 µM
MDA-MB-435
  GI50: 83.7 µM
  TGI: > 100 µM
NCI-H460 lung
  GI50: > 100 µM
  TGI: > 100 µM
OVCAR-8 ovarian
  GI50: > 100 µM
  TGI: > 100 µM
SK-MEL-5 melanoma
  GI50: 74.2 µM
  TGI: > 100 µM

## COC(=O)[C@@H](OC)[C@@H]1Cc2cc3cc(OC4CC(OC5CC(O)C(O)C(C)O5)C(O)C(C)O4)c(C)c(O)c3c(O)c2C(=O)[C@H]1OC1CC(OC2CC(OC3CC(C)(O)C(O)C(C)O3)C(O)C(C)O2)C(O)C(C)O1 (stereo not given in full)
ACHN renal
  GI50: 0.0313 µM
  TGI: > 16.5 µM
CAKI-1 renal
  GI50: 0.0425 µM
EKVX NSCLC
  GI50: 0.0457 µM
  TGI: 1.22 µM
HCT-15 colon
  GI50: 0.0575 µM
  TGI: > 16.5 µM
HS 578T breast
  GI50: 0.0399 µM
  TGI: 0.223 µM
LOX IMVI melanoma
  GI50: 0.026 µM
  TGI: > 5.38 µM
MDA-MB-435
  GI50: 0.0274 µM
  TGI: 0.0605 µM
NCI-H460 lung
  GI50: 0.0429 µM
  TGI: > 16.5 µM
OVCAR-8 ovarian
  GI50: 0.0393 µM
  TGI: > 16.5 µM
SK-MEL-5 melanoma
  GI50: 0.0327 µM
  TGI: 0.0892 µM

## Cc1ccc(C(=O)N=Nc2c(O)[nH]c3ccc(Cl)cc23)cc1
ACHN renal
  GI50: > 50 µM
  TGI: > 50 µM
CAKI-1 renal
  GI50: 16.1 µM
  TGI: 45.3 µM
EKVX NSCLC
  GI50: > 50 µM
  TGI: > 50 µM
HCT-15 colon
  GI50: 18 µM
  TGI: > 50 µM
HS 578T breast
  GI50: > 50 µM
  TGI: > 50 µM
LOX IMVI melanoma
  GI50: 31.2 µM
  TGI: > 50 µM
MDA-MB-435
  GI50: 13 µM
  TGI: 40.6 µM
NCI-H460 lung
  GI50: 15.1 µM
  TGI: > 50 µM
OVCAR-8 ovarian
  GI50: 10.8 µM
  TGI: 32.4 µM
SK-MEL-5 melanoma
  GI50: 23.7 µM
  TGI: > 50 µM

## CC(=O)/C(=C\c1c(-c2ccccc2)[nH]c2ccccc12)S(=O)(=O)c1ccccc1
ACHN renal
  GI50: 2.06 µM
  TGI: 5.09 µM
CAKI-1 renal
  GI50: 2.43 µM
  TGI: 10.6 µM
EKVX NSCLC
  GI50: 3.22 µM
  TGI: > 100 µM
HCT-15 colon
  GI50: 0.834 µM
  TGI: 3.21 µM
HS 578T breast
  GI50: 3.81 µM
  TGI: > 93.8 µM
LOX IMVI melanoma
  GI50: 1.39 µM
  TGI: 3.27 µM
MDA-MB-435
  GI50: 0.295 µM
  TGI: 4.14 µM
NCI-H460 lung
  GI50: 1.04 µM
  TGI: 2.68 µM
OVCAR-8 ovarian
  GI50: 2.51 µM
  TGI: 9.89 µM
SK-MEL-5 melanoma
  GI50: 0.78 µM
  TGI: 2.21 µM

## COc1ccc2nccc(/C=C/c3ccnc4ccc(OC)cc34)c2c1
ACHN renal
  GI50: > 71 µM
  TGI: > 100 µM
CAKI-1 renal
  GI50: > 82.4 µM
  TGI: > 100 µM
EKVX NSCLC
  GI50: > 61.2 µM
  TGI: > 100 µM
HCT-15 colon
  GI50: > 62.8 µM
  TGI: > 100 µM
HS 578T breast
  GI50: 23.6 µM
  TGI: 90.1 µM
LOX IMVI melanoma
  GI50: 69.3 µM
  TGI: > 100 µM
MDA-MB-435
  GI50: > 79.5 µM
  TGI: > 100 µM
NCI-H460 lung
  GI50: > 100 µM
  TGI: > 100 µM
OVCAR-8 ovarian
  GI50: > 100 µM
  TGI: > 100 µM
SK-MEL-5 melanoma
  GI50: > 71.4 µM
  TGI: > 100 µM

## CCCC#CCOC(=O)c1cc([N+](=O)[O-])cc([N+](=O)[O-])c1
ACHN renal
  TGI: > 100 µM
CAKI-1 renal
  TGI: > 100 µM
EKVX NSCLC
  TGI: > 100 µM
HCT-15 colon
  TGI: > 100 µM
HS 578T breast
  TGI: > 100 µM
LOX IMVI melanoma
  TGI: > 100 µM
MDA-MB-435
  TGI: > 100 µM
NCI-H460 lung
  TGI: > 100 µM
OVCAR-8 ovarian
  TGI: > 100 µM
SK-MEL-5 melanoma
  TGI: > 100 µM

## Cc1cn2c(/C=N/N=C(N)N)c(-c3ccsc3)nc2s1
ACHN renal
  GI50: 3.08 µM
  TGI: 13.6 µM
CAKI-1 renal
  GI50: 17.4 µM
  TGI: 32.7 µM
EKVX NSCLC
  GI50: 13.8 µM
  TGI: 27.4 µM
HCT-15 colon
  GI50: 7.81 µM
  TGI: 21.6 µM
HS 578T breast
  GI50: 13 µM
  TGI: 37.8 µM
LOX IMVI melanoma
  GI50: 1.6 µM
  TGI: 3.35 µM
MDA-MB-435
  GI50: 11.1 µM
  TGI: 24.6 µM
NCI-H460 lung
  GI50: 5.29 µM
  TGI: > 100 µM
OVCAR-8 ovarian
  GI50: 16.2 µM
  TGI: 34.4 µM
SK-MEL-5 melanoma
  GI50: 2.71 µM
  TGI: 5.19 µM

## Nc1ncnc2nn(C3OC(CO)C(O)C3O)nc12 (stereo not given)
ACHN renal
  TGI: 49.3 µM
CAKI-1 renal
  TGI: > 100 µM
EKVX NSCLC
  TGI: > 100 µM
HCT-15 colon
  TGI: 45.3 µM
HS 578T breast
  TGI: > 100 µM
LOX IMVI melanoma
  TGI: 23 µM
MDA-MB-435
  TGI: > 90 µM
NCI-H460 lung
  TGI: 25.3 µM
OVCAR-8 ovarian
  TGI: > 100 µM
SK-MEL-5 melanoma
  TGI: 39.7 µM

## C[C@@](O)(/C=C/[C@H]1CC=CC(=O)O1)[C@@H](C[C@@H](O)\C=C/C=C\C=C\CO)OP(=O)(O)O
ACHN renal
  TGI: 20.4 µM
CAKI-1 renal
  TGI: 4.66 µM
EKVX NSCLC
  GI50: 14.7 µM
  TGI: 65.6 µM and 49.1 µM
HCT-15 colon
  GI50: 11.4 µM
  TGI: 55.9 µM and 79.4 µM
HS 578T breast
  TGI: 22.6 µM
LOX IMVI melanoma
  GI50: 4.32 µM
  TGI: 10.1 µM and 6.8 µM
MDA-MB-435
  TGI: 11.7 µM
NCI-H460 lung
  GI50: 14.2 µM
  TGI: 63.6 µM and 78.5 µM
OVCAR-8 ovarian
  GI50: 12.3 µM
  TGI: 90.7 µM and 86.5 µM
SK-MEL-5 melanoma
  GI50: 7.89 µM
  TGI: 21.8 µM and 27 µM

## Cc1cc2c(=O)[nH]c(N)nc2nc1C
ACHN renal
  TGI: > 100 µM
CAKI-1 renal
  TGI: > 100 µM
EKVX NSCLC
  TGI: > 100 µM
HCT-15 colon
  TGI: > 100 µM
HS 578T breast
  TGI: > 100 µM
LOX IMVI melanoma
  TGI: > 100 µM
MDA-MB-435
  TGI: > 100 µM
NCI-H460 lung
  TGI: > 100 µM
OVCAR-8 ovarian
  TGI: > 100 µM
SK-MEL-5 melanoma
  TGI: > 100 µM
